The source made the active and inactive calls.
Key:
Bcl-2-like protein 10 = Bcl-2-like protein 10 (Homo sapiens, UniProt Q9HD36); experiment: Concentration-response of Bcl-B inhibitors by biochemical FP with TR3 (AID 1243); type: functional
NADPH oxidase 1 = NADPH oxidase 1 (Homo sapiens, UniProt Q9Y5S8); type: functional, cell-based;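 further: Cell-based assay with luminescence read-out, IC50 derived from inhibitor dose-response curves; intracellular ROS from endogenous NOX1 in intact HT29 colon cancer cells; potency of inhibitors that lower the ROS luminescence signal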
[1] = biological target: T1, Mannose-6-phosphate isomerase (Homo sapiens, UniProt P34949); experiment: MPI enzyme activity inhibition – biochemical, fluorescence intensity, coupled assay, primary screen (AID 1209)
T1 sequence (P34949 whole entry): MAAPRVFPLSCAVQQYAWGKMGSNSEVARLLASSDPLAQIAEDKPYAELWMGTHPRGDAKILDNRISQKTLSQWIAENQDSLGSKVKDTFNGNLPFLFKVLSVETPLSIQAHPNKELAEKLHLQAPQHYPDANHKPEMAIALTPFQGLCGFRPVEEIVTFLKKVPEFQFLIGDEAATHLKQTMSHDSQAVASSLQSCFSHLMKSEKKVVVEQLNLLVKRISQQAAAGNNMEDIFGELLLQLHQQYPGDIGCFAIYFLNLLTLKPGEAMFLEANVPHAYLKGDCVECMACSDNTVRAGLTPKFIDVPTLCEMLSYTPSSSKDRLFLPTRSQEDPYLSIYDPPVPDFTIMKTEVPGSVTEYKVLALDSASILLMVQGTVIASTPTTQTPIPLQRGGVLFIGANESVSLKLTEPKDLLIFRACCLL

[2] = luciferase reporter signal suppression in cells – H4 neuroglioma cells, luminescence, dose response (AID 1990); type: functional, cell-based
[3] = decrease of insulin promoter-GFP reporter – imaging, high-content screening, mouse beta cells (AID 1628); type: functional; details: MIN6
[4] = biological target: T2, Neuropeptide Y receptor type 2 (Homo sapiens, UniProt P49146); experiment: IC50 for human NPY-Y2 blockade – cell-based, counter-screen for NPY-Y1 antagonist project, dose response (AID 1278); type: functional
T2 sequence (P49146 whole entry): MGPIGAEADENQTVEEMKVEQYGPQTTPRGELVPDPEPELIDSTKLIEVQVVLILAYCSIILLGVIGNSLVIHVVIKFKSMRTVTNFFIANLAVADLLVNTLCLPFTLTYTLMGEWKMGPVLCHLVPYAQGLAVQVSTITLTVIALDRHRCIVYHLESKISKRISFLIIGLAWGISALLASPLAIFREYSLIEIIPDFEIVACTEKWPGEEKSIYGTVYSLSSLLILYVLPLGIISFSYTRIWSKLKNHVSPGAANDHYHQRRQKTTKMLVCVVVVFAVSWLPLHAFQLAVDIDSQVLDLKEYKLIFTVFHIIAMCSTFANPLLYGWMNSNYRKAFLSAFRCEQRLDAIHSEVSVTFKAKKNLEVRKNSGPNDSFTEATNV

[5] = biological target: Luciferin 4-monooxygenase (Photinus pyralis, UniProt P08659); experiment: Counter Screen for Luciferase-based Assay Positives. [Related pubchem assays: 620, 618, 411 ]
[6] = Luminescence Cell-Based Dose Response HTS to Identify Inhibitors of 5'UTR Stem-Loop Driven Prion Protein mRNA Translation in H4 Neuroglioblastoma Cells. [Related pubchem assays: 1827 (Project Summary), 1813 (Primary HTS)]; type: functional
[7] = MIN6 cell viability loss – mouse insulinoma, cytotoxicity control, dose response (AID 2122); type: functional;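 further: confirmatory high-throughput counterscreen run to flag cytotoxic compounds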
Galanin receptor type 2 = Galanin receptor type 2 (Homo sapiens, UniProt O43603); experiment: Dose Response cell-based high-throughput screening assay to identify antagonists of galanin receptor 2 (GALR2). [Related pubchem assays: 828, 866 ]; type: functional
[8] = alpha-synuclein stem-loop luciferase translation blockers – H4 neuroglioma cells, luminescence, confirmation (AID 1988); type: functional, cell-based
[9] = biological target: T3, Neuropeptide Y receptor type 1 (Homo sapiens, UniProt P25929); experiment: IC50 of human NPY-Y1 blockers – cell-based, dose response (AID 1277); type: functional
T3 sequence (P25929 whole entry): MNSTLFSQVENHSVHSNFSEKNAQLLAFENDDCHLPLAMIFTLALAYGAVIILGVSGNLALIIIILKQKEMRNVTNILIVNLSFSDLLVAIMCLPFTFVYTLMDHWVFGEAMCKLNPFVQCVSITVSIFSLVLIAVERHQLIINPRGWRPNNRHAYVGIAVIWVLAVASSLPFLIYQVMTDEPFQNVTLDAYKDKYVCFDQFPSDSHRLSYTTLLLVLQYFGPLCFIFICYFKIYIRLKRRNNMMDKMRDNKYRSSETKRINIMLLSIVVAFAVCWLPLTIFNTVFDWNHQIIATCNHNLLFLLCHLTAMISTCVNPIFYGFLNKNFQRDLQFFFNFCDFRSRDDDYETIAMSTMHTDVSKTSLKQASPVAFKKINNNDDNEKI

HT-1080 = experiment: HT1080 cell viability loss – fluorescence readout (AID 620); type: functional, cell-based; details: Homo sapiens
[10] = biological target: Photoreceptor-specific nuclear receptor (Homo sapiens, UniProt Q9Y5X4); type: functional, cell-based;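 further: CHO-S cells with Gal4-NCOR and VP16-NR2E3 two-hybrid luciferase reporter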
Estrogen receptor = biological target: T4, Estrogen receptor (Homo sapiens, UniProt P03372);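 further: potency for inhibiting coactivator peptide recruitment to the receptor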
T4 sequence (P03372 whole entry): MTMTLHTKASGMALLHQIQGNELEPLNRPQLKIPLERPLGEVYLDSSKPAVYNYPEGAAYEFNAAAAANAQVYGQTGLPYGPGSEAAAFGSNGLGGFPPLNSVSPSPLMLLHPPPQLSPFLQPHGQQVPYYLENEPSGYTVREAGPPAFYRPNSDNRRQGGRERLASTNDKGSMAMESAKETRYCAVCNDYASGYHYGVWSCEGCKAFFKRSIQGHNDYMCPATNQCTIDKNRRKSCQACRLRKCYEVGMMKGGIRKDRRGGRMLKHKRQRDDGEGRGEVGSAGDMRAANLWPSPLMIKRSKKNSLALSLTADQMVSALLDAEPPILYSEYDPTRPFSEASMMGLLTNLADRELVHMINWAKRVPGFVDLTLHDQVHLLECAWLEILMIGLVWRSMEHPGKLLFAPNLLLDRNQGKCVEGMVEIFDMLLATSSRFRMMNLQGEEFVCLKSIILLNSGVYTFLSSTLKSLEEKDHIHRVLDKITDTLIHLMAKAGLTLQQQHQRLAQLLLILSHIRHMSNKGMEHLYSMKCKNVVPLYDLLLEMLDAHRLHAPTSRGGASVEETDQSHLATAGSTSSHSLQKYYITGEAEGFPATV

Estrogen receptor beta [11] = biological target: T5, Estrogen receptor beta (Homo sapiens, UniProt Q92731);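 further: recombinant ER-beta bound to coactivator SRC1 peptide in presence of estradiol agonist; inhibitors block coactivator peptide binding and lower the FRET signal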
Estrogen receptor beta [12] = biological target: T5, Estrogen receptor beta; experiment: blockers of SRC-3 recruitment to ERβ – biochemical, ELISA, streptavidin-HRP readout, orthogonal assay, confirmation (AID 1060)
Protein skinhead-1 = biological target: T6, Protein skinhead-1 (Caenorhabditis elegans, UniProt P34707); type: functional
T6 sequence (P34707 whole entry): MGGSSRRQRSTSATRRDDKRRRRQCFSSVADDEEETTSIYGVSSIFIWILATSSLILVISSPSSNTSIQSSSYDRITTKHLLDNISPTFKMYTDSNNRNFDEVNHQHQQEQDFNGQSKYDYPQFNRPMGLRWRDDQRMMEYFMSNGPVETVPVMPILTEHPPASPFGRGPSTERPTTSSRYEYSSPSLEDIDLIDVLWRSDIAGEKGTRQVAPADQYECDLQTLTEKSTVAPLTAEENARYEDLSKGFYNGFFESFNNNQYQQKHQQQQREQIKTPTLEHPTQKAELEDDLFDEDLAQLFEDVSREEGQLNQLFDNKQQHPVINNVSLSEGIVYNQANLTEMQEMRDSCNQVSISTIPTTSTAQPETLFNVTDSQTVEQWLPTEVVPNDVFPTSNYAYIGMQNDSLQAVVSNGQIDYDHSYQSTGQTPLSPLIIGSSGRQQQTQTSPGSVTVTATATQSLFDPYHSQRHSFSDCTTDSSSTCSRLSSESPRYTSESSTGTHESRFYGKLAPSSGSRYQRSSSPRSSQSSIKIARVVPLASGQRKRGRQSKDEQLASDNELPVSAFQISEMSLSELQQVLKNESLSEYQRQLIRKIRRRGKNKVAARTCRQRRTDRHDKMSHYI

[13] = biological target: Peroxisome proliferator-activated receptor gamma/Nuclear receptor coactivator 2 (Homo sapiens, UniProt P37231); type: functional;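 further: agonist potency for raising coactivator recruitment to the receptor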
[14] = biological target: Peroxisome proliferator-activated receptor gamma/Nuclear receptor coactivator 1 (Homo sapiens, UniProt P37231); type: functional;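 further: agonist potency as compounds enhance coactivator SRC-1 recruitment to PPARgamma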
[15] = biological target: Peroxisome proliferator-activated receptor gamma/Nuclear receptor coactivator 3 (Homo sapiens, UniProt P37231); type: functional;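 further: agonist potency for raising coactivator recruitment to the receptor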
[16] = Luminescence Cell-Based Dose Retest to Confirm Inhibitors of Cancer Stem Cells. [Related pubchem assays (depositor defined):AID2717, AID2721]; type: functional; details: Homo sapiens
[17] = biological target: T7, Endoribonuclease toxin MazF (Escherichia coli K-12, UniProt P0AE70); experiment: activation of MazEF endoribonuclease cleavage – biochemical, fluorescence, single-stranded RNA substrate, uHTS hits, dose response (AID 588481); type: functional
T7 sequence (P0AE70 whole entry): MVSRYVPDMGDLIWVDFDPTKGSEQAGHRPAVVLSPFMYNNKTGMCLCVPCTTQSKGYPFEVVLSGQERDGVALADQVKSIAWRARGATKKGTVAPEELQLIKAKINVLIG

[18] = biological target: T7, Endoribonuclease toxin MazF; experiment: substrate-only fluorescence increase artefacts – biochemical, single-stranded RNase substrate, counter-screen for MazEF activator project, dose response (AID 588502); type: functional
[19] = Luminescence Cell-Based Dose Confirmation HTS to Identify Inhibitors of Polyadenylation.; type: functional
[20] = biological target: DNA (cytosine-5)-methyltransferase 1 (Homo sapiens, UniProt P26358); experiment: inhibition of DNA methylation by DNMT1 – biochemical, fluorescent molecular beacon, confirmation (AID 602386); type: functional
[21] = acridine orange displacement from DNA – biochemical, fluorescence polarization, cherry-pick, artefact control for RAD54 inhibitor project, dose response (AID 651673); type: functional
[22] = biological target: T8, DNA repair and recombination protein RAD54-like (Homo sapiens, UniProt Q92698); experiment: RAD54 Holliday junction migration blockers – biochemical, fluorescence, cherry-picked samples, dose series, confirmation (AID 651657); type: functional
T8 sequence (Q92698 whole entry): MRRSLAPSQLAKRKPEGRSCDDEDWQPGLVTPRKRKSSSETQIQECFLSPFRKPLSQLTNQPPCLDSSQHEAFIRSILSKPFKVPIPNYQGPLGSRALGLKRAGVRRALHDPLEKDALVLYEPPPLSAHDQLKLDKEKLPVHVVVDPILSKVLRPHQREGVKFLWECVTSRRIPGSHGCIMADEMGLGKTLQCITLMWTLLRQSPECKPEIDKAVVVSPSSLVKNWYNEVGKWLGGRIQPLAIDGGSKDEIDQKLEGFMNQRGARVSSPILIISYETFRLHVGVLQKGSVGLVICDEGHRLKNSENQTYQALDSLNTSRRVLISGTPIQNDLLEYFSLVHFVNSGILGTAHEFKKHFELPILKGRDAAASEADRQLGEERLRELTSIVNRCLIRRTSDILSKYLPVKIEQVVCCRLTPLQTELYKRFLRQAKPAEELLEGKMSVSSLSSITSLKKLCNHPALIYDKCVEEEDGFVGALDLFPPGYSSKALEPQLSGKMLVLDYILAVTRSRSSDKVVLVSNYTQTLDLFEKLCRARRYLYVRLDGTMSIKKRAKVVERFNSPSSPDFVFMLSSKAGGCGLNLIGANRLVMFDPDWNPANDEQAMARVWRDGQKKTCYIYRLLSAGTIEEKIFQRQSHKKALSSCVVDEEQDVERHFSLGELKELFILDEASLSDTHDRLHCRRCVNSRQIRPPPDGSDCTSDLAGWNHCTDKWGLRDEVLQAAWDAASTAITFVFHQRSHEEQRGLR

[23] = biological target: T9, DNA repair protein RAD52 homolog (Homo sapiens, UniProt P43351); type: functional, biochemical
T9 sequence (P43351 whole entry): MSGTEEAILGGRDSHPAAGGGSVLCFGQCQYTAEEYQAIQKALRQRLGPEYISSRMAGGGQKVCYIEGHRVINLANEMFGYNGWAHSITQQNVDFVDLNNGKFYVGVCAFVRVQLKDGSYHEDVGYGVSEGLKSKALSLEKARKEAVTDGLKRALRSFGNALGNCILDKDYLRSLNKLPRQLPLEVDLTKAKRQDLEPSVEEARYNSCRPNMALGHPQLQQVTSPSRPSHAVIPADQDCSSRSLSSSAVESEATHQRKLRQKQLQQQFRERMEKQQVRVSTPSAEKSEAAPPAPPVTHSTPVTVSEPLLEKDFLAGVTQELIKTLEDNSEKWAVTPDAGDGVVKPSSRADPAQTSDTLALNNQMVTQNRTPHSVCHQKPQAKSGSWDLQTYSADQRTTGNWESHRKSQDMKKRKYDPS

T5 sequence (Q92731 whole entry): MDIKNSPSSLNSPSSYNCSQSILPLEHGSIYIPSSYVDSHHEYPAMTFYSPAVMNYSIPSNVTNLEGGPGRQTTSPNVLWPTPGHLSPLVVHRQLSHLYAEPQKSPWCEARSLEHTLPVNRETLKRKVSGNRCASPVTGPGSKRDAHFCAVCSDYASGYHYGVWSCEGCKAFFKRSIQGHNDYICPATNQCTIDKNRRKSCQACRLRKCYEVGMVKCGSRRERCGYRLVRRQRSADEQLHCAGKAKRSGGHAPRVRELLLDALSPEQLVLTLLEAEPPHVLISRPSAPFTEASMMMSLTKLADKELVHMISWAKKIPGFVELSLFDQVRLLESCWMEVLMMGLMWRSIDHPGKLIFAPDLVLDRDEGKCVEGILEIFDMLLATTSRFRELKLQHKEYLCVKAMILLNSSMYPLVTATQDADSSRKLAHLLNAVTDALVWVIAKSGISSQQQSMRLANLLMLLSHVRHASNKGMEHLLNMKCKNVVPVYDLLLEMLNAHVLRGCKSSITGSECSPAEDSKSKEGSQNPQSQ
Sequence of Peroxisome proliferator-activated receptor gamma/Nuclear receptor coactivator 2 (P37231 whole entry): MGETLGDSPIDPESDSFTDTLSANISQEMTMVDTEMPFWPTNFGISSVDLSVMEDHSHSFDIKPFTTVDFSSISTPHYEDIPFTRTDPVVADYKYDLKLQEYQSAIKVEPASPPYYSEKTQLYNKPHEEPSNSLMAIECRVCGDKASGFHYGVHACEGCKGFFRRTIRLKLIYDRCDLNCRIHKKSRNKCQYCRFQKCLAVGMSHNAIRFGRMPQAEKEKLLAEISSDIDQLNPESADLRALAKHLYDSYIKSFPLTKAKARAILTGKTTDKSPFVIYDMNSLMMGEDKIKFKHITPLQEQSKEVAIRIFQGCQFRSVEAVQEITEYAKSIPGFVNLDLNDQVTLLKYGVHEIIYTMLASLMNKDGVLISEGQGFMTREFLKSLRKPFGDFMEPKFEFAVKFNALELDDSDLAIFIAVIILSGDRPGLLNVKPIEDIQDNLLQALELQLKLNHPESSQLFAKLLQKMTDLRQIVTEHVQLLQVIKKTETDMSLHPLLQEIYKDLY
Sequence of Peroxisome proliferator-activated receptor gamma/Nuclear receptor coactivator 2 (Q15596 whole entry, further chain): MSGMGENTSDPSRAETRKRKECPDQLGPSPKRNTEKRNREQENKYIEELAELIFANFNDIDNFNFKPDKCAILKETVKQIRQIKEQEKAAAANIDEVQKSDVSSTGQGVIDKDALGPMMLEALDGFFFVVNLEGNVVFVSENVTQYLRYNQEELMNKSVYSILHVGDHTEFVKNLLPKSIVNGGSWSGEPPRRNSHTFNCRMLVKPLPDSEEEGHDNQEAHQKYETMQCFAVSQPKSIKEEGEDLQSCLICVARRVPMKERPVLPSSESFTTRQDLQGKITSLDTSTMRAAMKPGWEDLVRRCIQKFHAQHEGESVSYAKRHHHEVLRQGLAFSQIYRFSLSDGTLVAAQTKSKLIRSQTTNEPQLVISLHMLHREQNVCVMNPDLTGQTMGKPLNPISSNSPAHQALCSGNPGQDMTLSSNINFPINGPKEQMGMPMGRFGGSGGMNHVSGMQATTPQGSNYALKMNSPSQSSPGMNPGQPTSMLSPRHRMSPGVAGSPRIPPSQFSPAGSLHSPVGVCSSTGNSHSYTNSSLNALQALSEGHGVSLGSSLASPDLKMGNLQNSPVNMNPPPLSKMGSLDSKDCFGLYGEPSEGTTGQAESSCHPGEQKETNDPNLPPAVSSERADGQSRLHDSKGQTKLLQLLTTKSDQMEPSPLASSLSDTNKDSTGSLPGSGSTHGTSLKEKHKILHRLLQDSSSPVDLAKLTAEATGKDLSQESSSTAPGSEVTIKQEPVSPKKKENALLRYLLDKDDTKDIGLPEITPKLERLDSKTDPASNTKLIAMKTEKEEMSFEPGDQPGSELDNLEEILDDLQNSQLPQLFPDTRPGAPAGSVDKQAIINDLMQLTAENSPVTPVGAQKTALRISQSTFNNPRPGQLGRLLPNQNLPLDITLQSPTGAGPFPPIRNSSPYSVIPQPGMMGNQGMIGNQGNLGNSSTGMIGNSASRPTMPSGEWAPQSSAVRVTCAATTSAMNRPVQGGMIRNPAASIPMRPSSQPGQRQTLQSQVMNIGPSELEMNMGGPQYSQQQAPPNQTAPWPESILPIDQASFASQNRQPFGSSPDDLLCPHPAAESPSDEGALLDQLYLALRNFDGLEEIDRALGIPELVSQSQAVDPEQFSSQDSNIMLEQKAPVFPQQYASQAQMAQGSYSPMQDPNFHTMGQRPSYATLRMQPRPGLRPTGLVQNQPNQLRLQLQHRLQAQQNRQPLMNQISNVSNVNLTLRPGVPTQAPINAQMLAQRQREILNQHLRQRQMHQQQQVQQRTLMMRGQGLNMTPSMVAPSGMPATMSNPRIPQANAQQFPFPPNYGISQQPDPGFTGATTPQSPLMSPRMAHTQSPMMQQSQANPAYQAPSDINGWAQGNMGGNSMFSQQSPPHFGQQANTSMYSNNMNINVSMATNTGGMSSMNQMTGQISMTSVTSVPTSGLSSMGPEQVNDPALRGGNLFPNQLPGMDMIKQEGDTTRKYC
Sequence of Peroxisome proliferator-activated receptor gamma/Nuclear receptor coactivator 1 (P37231 whole entry): as the sequence (P37231 whole entry) above
Sequence of Peroxisome proliferator-activated receptor gamma/Nuclear receptor coactivator 1 (Q15788 whole entry, further chain): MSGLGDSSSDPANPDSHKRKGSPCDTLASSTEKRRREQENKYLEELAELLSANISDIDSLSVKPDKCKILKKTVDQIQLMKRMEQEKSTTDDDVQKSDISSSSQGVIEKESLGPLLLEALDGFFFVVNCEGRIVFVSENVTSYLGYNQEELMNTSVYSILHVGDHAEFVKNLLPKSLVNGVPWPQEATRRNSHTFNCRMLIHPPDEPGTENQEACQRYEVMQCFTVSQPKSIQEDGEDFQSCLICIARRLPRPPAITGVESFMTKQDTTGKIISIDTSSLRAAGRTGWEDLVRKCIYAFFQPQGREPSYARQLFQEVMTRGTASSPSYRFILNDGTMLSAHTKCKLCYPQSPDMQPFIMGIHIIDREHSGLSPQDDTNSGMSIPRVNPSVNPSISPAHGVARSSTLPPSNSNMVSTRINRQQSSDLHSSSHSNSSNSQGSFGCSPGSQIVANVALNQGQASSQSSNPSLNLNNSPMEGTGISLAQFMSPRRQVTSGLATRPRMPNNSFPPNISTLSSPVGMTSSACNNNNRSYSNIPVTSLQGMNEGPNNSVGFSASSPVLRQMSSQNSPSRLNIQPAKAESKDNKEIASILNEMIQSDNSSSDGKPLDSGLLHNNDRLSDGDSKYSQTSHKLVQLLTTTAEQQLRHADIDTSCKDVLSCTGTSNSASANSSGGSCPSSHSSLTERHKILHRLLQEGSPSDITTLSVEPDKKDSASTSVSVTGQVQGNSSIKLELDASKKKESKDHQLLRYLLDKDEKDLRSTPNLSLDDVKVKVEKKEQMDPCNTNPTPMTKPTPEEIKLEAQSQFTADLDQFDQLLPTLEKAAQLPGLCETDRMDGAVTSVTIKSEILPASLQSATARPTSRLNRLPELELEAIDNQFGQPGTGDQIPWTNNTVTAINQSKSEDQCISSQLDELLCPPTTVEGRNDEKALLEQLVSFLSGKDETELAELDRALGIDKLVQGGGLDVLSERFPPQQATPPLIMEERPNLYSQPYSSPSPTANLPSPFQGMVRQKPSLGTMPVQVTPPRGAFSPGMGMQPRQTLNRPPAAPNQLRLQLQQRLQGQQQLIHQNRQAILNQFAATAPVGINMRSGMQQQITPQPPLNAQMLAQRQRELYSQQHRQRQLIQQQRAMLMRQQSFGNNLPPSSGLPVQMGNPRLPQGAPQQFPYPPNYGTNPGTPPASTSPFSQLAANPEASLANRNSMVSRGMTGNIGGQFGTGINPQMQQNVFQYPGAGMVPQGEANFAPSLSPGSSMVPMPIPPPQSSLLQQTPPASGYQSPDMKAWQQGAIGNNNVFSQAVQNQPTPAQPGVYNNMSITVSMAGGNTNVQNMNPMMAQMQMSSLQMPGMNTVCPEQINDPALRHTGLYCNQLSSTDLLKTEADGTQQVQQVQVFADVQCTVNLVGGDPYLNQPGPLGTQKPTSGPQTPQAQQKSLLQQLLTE
Sequence of Galanin receptor type 2 (O43603 whole entry): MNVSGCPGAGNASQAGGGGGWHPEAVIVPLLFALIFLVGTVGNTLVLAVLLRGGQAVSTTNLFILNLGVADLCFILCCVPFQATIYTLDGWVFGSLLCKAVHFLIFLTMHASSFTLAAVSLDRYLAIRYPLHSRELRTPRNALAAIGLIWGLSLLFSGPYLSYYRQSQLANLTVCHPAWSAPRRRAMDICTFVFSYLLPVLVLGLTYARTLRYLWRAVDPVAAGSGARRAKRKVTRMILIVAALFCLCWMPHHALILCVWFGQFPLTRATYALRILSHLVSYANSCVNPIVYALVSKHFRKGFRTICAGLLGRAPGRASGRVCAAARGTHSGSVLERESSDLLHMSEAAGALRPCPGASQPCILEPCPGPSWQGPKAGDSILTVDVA
Sequence of Bcl-2-like protein 10 (Q9HD36 whole entry): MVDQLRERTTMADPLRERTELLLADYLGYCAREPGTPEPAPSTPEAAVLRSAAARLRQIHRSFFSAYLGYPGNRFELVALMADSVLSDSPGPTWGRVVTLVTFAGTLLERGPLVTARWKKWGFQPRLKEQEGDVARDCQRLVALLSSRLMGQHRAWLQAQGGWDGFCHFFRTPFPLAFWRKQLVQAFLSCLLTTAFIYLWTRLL

Oc1ccc(Nc2nc(-c3ccccn3)cs2)cc1
EC50 (Bcl-2-like protein 10): 3.69 µM (active)

O=C(Nc1ccc(OCc2ccccc2)cc1)Nc1ccc(N2CCCCC2)cc1
IC50 (NADPH oxidase 1): > 17 µM (not active)

COc1ccc(NC(=O)C2CC(=O)n3cnnc3S2)cc1 (centres undefined)
IC50 [1]: > 50 µM (not active)

Cc1cc(C(=O)CSc2nc3ccccc3[nH]2)c(C)n1CC1CCCO1 (centres undefined)
EC50 [2]: 7.29 µM (inconclusive)
IC50 [3]: 1.2 µM (active)
IC50 [4]: > 35 µM (not active)
EC50 [5]: > 100 µM (not active)
EC50 [6]: 8.51 µM (active)
IC50 [7]: 0.874 µM (active)
IC50 (Galanin receptor type 2): > 42 µM (not active)
EC50 [8]: 4.95 µM (active)
IC50 [9]: > 35 µM (not active)
EC50 (HT-1080): > 50 µM (not active)
IC50 [10]: 11.7 µM (inactive)

Cc1ccc(-c2csc(NC(=O)c3ccno3)n2)cc1
IC50 (Estrogen receptor): 7.19 µM (active)
IC50 (Estrogen receptor beta [11]): 3.87 µM (active)
IC50 (Estrogen receptor beta [12]): < 0.023 µM (not active)
IC50 (Protein skinhead-1): > 100 µM (inactive)

Cn1c(/C(C#N)=C(\O)COc2ccc3ccccc3c2)nc2ccccc21
EC50 [13]: > 79.4 µM (not active)
EC50 [14]: > 79.4 µM (not active)
EC50 [15]: > 79.4 µM (not active)
AC50 [16]: < 0.16 µM (active)
EC50 [17]: > 99 µM (inactive)
EC50 [18]: > 99 µM (inactive)

CN(C)CCc1cc2c(c3c1ccc1ccccc13)OCO2
EC50 [19]: > 120 µM (not active)
IC50 [20]: > 99 µM (inactive)
AC50 [21]: 39.9 µM (active)
AC50 [22]: 4.76 µM (active)
AC50 [23]: 1.29 µM (active)
